Reference: ChEMBL document CHEMBL1201862, “PubChem BioAssay data set” (2004)
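Five concentrations, 48 hours, 96-well plates. GI50 is the concentration that inhibits growth by half.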 Calls of active or inactive are those of the source. No stated cut-off is given here; in the data, active = GI50 up to about 1.1 µM and inactive = higher.

How the values were obtained:
Assay in all cases: NCI tumour cell line growth inhibition, 48 h
U-251 = system: U-251
TK-10 = system: TK-10
OVCAR-3 = system: OVCAR-3
T47D = system: T47D
M14 = system: M14
OVCAR-5 = system: OVCAR-5
HCC 2998 = system: HCC 2998
SN12C = system: SN12C
SNB-75 = system: SNB-75
KM12 = system: KM12
SK-OV-3 = system: SK-OV-3
SK-MEL-28 = system: SK-MEL-28
EKVX = system: EKVX
SW-620 = system: SW-620
DU-145 = system: DU-145
IGROV-1 = system: IGROV-1
NCI-H522 = system: NCI-H522
MDA-N = system: MDA-N
RXF 393 = system: RXF 393
MCF7 = system: MCF7

SMILES	GI50 (U-251)	GI50 (TK-10)	GI50 (OVCAR-3)	GI50 (T47D)	GI50 (M14)	GI50 (OVCAR-5)	GI50 (HCC 2998)	GI50 (SN12C)	GI50 (SNB-75)	GI50 (KM12)	GI50 (SK-OV-3)	GI50 (SK-MEL-28)	GI50 (EKVX)	GI50 (SW-620)	GI50 (DU-145)	GI50 (IGROV-1)	GI50 (NCI-H522)	GI50 (MDA-N)	GI50 (RXF 393)	GI50 (MCF7)
Oc1c(C(Nc2ccccn2)c2ccccc2)ccc2cccnc12 (stereo not given)	2.72 µM (inactive)	4.99 µM (inactive)	2.51 µM (inactive)	3.94 µM (inactive)	3.08 µM (inactive)	7.78 µM (inactive)	49.9 µM (inactive)	1.24 µM (inactive)	6.24 µM (inactive)	4.59 µM (inactive)	9.4 µM (inactive)	6.22 µM (inactive)	3.01 µM (inactive)	7.13 µM (inactive)	4.05 µM (inactive)	3.33 µM (inactive)	2.68 µM (inactive)	5.7 µM (inactive)	3.84 µM (inactive)	4.04 µM (inactive)
CCOC(=O)/C(C(=O)NC(C)C)=C(/N)N1CCOCC1	> 100 µM (inactive)	> 100 µM (inactive)	> 100 µM (inactive)	> 100 µM (inactive)	> 100 µM (inactive)	> 100 µM (inactive)	> 100 µM (inactive)	> 100 µM (inactive)	> 100 µM (inactive)	> 100 µM (inactive)	> 100 µM (inactive)	> 100 µM (inactive)	> 100 µM (inactive)	> 100 µM (inactive)	> 100 µM (inactive)	> 100 µM (inactive)	> 100 µM (inactive)	> 100 µM (inactive)	> 100 µM (inactive)	> 100 µM (inactive)
CCOC(NC(=O)CC)(C(F)(F)F)C(F)(F)F	> 100 µM (inactive)	> 100 µM (inactive)	> 100 µM (inactive)	> 100 µM (inactive)	> 100 µM (inactive)	> 100 µM (inactive)	> 100 µM (inactive)	> 100 µM (inactive)	> 100 µM (inactive)	> 100 µM (inactive)	> 100 µM (inactive)	> 100 µM (inactive)	> 100 µM (inactive)	> 100 µM (inactive)	> 100 µM (inactive)	> 100 µM (inactive)	> 100 µM (inactive)	> 100 µM (inactive)	0.145 µM (active)	> 100 µM (inactive)
O=C1N/C(=N/N=C\c2ccccc2)N/C1=C/c1ccc(Cl)cc1	22.8 µM (inactive)	42.3 µM (inactive)	17.4 µM (inactive)	21 µM (inactive)	37.4 µM (inactive)	26.4 µM (inactive)	15.9 µM (inactive)	23.2 µM (inactive)	18.7 µM (inactive)	27.1 µM (inactive)	20.7 µM (inactive)	39 µM (inactive)	19.4 µM (inactive)	30.6 µM (inactive)	28.6 µM (inactive)	14.6 µM (inactive)	18.5 µM (inactive)	34.3 µM (inactive)	21.2 µM (inactive)	24.7 µM (inactive)
CC1=C/C(=N\NC(N)=S)C(C(O)(C(F)(F)F)C(F)(F)F)C(C)(C)C1 (stereo not given)	> 10 µM (inactive)	> 10 µM (inactive)	> 10 µM (inactive)	> 10 µM (inactive)	> 10 µM (inactive)	> 10 µM (inactive)	> 10 µM (inactive)	> 10 µM (inactive)	> 10 µM (inactive)	> 10 µM (inactive)	> 10 µM (inactive)	> 10 µM (inactive)	> 10 µM (inactive)	> 10 µM (inactive)	> 10 µM (inactive)	> 10 µM (inactive)	> 10 µM (inactive)	> 10 µM (inactive)	> 10 µM (inactive)	> 10 µM (inactive)
NC(=O)C1CCCN1C(=O)C(Cc1c[nH]cn1)NC(=O)C1CCCC1 (stereo not given)	> 100 µM (inactive)	> 100 µM (inactive)	> 100 µM (inactive)	> 100 µM (inactive)	> 100 µM (inactive)	> 100 µM (inactive)	> 100 µM (inactive)	> 100 µM (inactive)	> 100 µM (inactive)	> 100 µM (inactive)	> 100 µM (inactive)	> 100 µM (inactive)	> 100 µM (inactive)	> 100 µM (inactive)	> 100 µM (inactive)	> 100 µM (inactive)	> 100 µM (inactive)	> 100 µM (inactive)	> 100 µM (inactive)	> 100 µM (inactive)
CCOC(=O)c1c(N/C(S)=N/c2ccccc2)sc2c1CCOC2	> 100 µM (inactive)	62.8 µM (inactive)	87.9 µM (inactive)	24 µM (inactive)	39.1 µM (inactive)	38.4 µM (inactive)	70.1 µM (inactive)	48.8 µM (inactive)	17.5 µM (inactive)	69.5 µM (inactive)	85.9 µM (inactive)	27.5 µM (inactive)	79.6 µM (inactive)	> 100 µM (inactive)	80.5 µM (inactive)	27.5 µM (inactive)	64.9 µM (inactive)	50.1 µM (inactive)	69.2 µM (inactive)	33 µM (inactive)
O=C(NC(OCc1ccccc1)(C(F)(F)F)C(F)(F)F)OCc1ccccc1	14.1 µM (inactive)	7.8 µM (inactive)	15.3 µM (inactive)	15.7 µM (inactive)	18.9 µM (inactive)	14.3 µM (inactive)	15.4 µM (inactive)	15.9 µM (inactive)	15.6 µM (inactive)	16.4 µM (inactive)	17.5 µM (inactive)	17.7 µM (inactive)	15.2 µM (inactive)	17.3 µM (inactive)	16.6 µM (inactive)	15.1 µM (inactive)	13.6 µM (inactive)	15.2 µM (inactive)	12.5 µM (inactive)	16.4 µM (inactive)
CN(CCC#N)c1ccc(/C=C2\SC(=S)NC2=O)cc1	32.8 µM (inactive)	49.7 µM (inactive)	27.7 µM (inactive)	51.2 µM (inactive)	67.6 µM (inactive)	> 100 µM (inactive)	51.6 µM (inactive)	80.4 µM (inactive)	35 µM (inactive)	40.7 µM (inactive)	71.9 µM (inactive)	40.1 µM (inactive)	> 100 µM (inactive)	58.2 µM (inactive)	73.6 µM (inactive)	> 100 µM (inactive)	71.1 µM (inactive)	53.6 µM (inactive)	23.6 µM (inactive)	46.6 µM (inactive)
CN1C(=O)c2ccccc2OC12C=Cc1c(ccc3ccccc13)O2 (stereo not given)	3.42 µM (inactive)	7.82 µM (inactive)	4.03 µM (inactive)	5.43 µM (inactive)	3.03 µM (inactive)	6.47 µM (inactive)	3.95 µM (inactive)	15.2 µM (inactive)	4.84 µM (inactive)	2.21 µM (inactive)	5.78 µM (inactive)	14.2 µM (inactive)	2.32 µM (inactive)	3.64 µM (inactive)	8 µM (inactive)	3.5 µM (inactive)	0.682 µM (active)	2.36 µM (inactive)	3.85 µM (inactive)	4.4 µM (inactive)
COc1ccc2c(c1)CC[C@@H]1[C@@H]2CC[C@]2(C)[C@@H](O)/C(=C/c3ccncc3)C[C@@H]12	12.4 µM (inactive)	18.9 µM (inactive)	18.5 µM (inactive)	5.14 µM (inactive)	11.3 µM (inactive)	12.5 µM (inactive)	8.59 µM (inactive)	22.8 µM (inactive)	10.4 µM (inactive)	9.71 µM (inactive)	21.2 µM (inactive)	15.3 µM (inactive)	18.5 µM (inactive)	6.41 µM (inactive)	18 µM (inactive)	14.9 µM (inactive)	14 µM (inactive)	12.4 µM (inactive)	4.25 µM (inactive)	16.6 µM (inactive)
Cc1sc2nc3n(c(=O)c2c1C)N=CN(c1ccc(F)cc1)C3	50.1 µM (inactive)	> 100 µM (inactive)	> 100 µM (inactive)	> 100 µM (inactive)	> 100 µM (inactive)	> 100 µM (inactive)	59.6 µM (inactive)	32.9 µM (inactive)	42.4 µM (inactive)	> 100 µM (inactive)	52 µM (inactive)	> 100 µM (inactive)	> 100 µM (inactive)	> 100 µM (inactive)	> 100 µM (inactive)	61.9 µM (inactive)	69.3 µM (inactive)	> 100 µM (inactive)	> 100 µM (inactive)	> 100 µM (inactive)
C=C1C[C@@H]2CC[C@@]34CC5O[C@H]6C(O[C@H]7CC[C@H](CC(=O)O[C@@H]8[C@@H](C)[C@@H]9O[C@@H]%10C[C@]%11(C[C@@H]%12O[C@]%13(C[C@H](C)[C@@H]%14O[C@@H]%15CC(C(O)CO)O[C@@H]%15C[C@@H]%14O%13)C[C@H](C)[C@@H]%12O%11)O[C@@H]%10C[C@@H]9O[C@H]8CC8O[C@@H](CC[C@@H]1O2)C[C@@H](C)C8(O)CO)O[C@@H]7[C@@H]6O3)[C@H]5O4 (stereo not given in full)	> 1 µM (active)	> 0.45 µM (active)	0.594 µM (active)	> 1 µM (active)	> 0.944 µM (active)	> 1 µM (active)	> 1 µM (active)	> 1 µM (active)	0.294 µM (active)	> 0.726 µM (active)	> 1 µM (active)	> 0.959 µM (active)	> 1 µM (active)	> 0.736 µM (active)	> 0.916 µM (active)	0.516 µM (active)	0.184 µM (active)	0.288 µM (active)	0.516 µM (active)	0.579 µM (active)
